In the NIST ThermoML archive (doi:10.1016/j.jct.2014.10.014):

Test: mn = molality of the nth substance listed, in mol/kg
Settings: 100 kPa, Liquid, Alternating current cell with electrodes

C[C@H](CCC(=O)[O-])[C@H]1CC[C@H]2[C@@H]3[C@H](O)C[C@@H]4C[C@H](O)CC[C@]4(C)[C@H]3C[C@H](O)[C@]12C.[Na+] [sodium cholate] + O
electrical conductivity [S/m]
Settings | 293.15 K | 298.15 K | 303.15 K | 308.15 K | 313.15 K | 318.15 K
m1 = 0.001 | 0.0066 | 0.007 | 0.005 | 0.007 | 0.0075 | 0.0115
m1 = 0.002 | 0.0129 | 0.014 | 0.0115 | 0.014 | 0.014 | 0.0175
m1 = 0.003 | 0.019 | 0.0204 | 0.018 | 0.02 | 0.02 | 0.0235
m1 = 0.004 | 0.0254 | 0.0267 | 0.0242 | 0.0263 | 0.0265 | 0.0305
m1 = 0.005 | 0.031 | 0.0326 | 0.0308 | 0.0332 | 0.0332 | 0.0369
m1 = 0.006 | 0.0378 | 0.0386 | 0.0373 | 0.0397 | 0.0395 | 0.043
m1 = 0.007 | 0.0434 | 0.0442 | 0.0439 | 0.0454 | 0.0466 | 0.0497
m1 = 0.008 | 0.0503 | 0.0498 | 0.0503 | 0.0524 | 0.0533 | 0.0565
m1 = 0.009 | 0.0558 | 0.0562 | 0.057 | 0.0584 | 0.06 | 0.0633
m1 = 0.01 | 0.0628 | 0.063 | 0.0635 | 0.0653 | 0.0668 | 0.0705
m1 = 0.011 | 0.0689 | 0.0687 | 0.07 | 0.0735 | 0.0745 | 0.0779
m1 = 0.012 | 0.0754 | 0.0753 | 0.076 | 0.0798 | 0.0815 | 0.0855
m1 = 0.013 | 0.0827 | 0.0825 | 0.082 | 0.0861 | 0.0885 | 0.093
m1 = 0.014 | 0.0881 | 0.088 | 0.0873 | 0.0911 | 0.0939 | 0.0985
m1 = 0.015 | 0.0929 | 0.0928 | 0.093 | 0.0967 | 0.0995 | 0.104
m1 = 0.016 | 0.0985 | 0.097 | 0.0981 | 0.102 | 0.104 | 0.111
m1 = 0.017 | 0.103 | 0.101 | 0.103 | 0.108 | 0.11 | 0.117
m1 = 0.018 | 0.107 | 0.105 | 0.108 | 0.113 | 0.115 | 0.122
m1 = 0.019 | 0.111 | 0.109 | 0.113 | 0.118 | 0.12 | 0.127
m1 = 0.02 | 0.115 | 0.112 | 0.118 | 0.123 | 0.126 | 0.132

C[C@H](CCC(=O)[O-])[C@H]1CC[C@H]2[C@@H]3CC[C@@H]4C[C@H](O)CC[C@]4(C)[C@H]3C[C@H](O)[C@]12C.[Na+] [sodium deoxycholate] + O
electrical conductivity [S/m]
Settings | 293.15 K | 298.15 K | 303.15 K | 308.15 K | 313.15 K | 318.15 K
m1 = 0.0005 | 0.003 | 0.0035 | 0.004 | 0.0035 | 0.0035 | 0.004
m1 = 0.001 | 0.0065 | 0.0065 | 0.007 | 0.0065 | 0.0065 | 0.007
m1 = 0.0015 | 0.0095 | 0.0095 | 0.01 | 0.0095 | 0.01 | 0.01
m1 = 0.002 | 0.0125 | 0.0125 | 0.013 | 0.0124 | 0.0128 | 0.013
m1 = 0.0025 | 0.0155 | 0.0155 | 0.016 | 0.0153 | 0.016 | 0.016
m1 = 0.003 | 0.0185 | 0.0182 | 0.0191 | 0.0185 | 0.019 | 0.019
m1 = 0.0035 | 0.021 | 0.0213 | 0.0218 | 0.022 | 0.022 | 0.022
m1 = 0.004 | 0.0242 | 0.0243 | 0.0248 | 0.025 | 0.0245 | 0.025
m1 = 0.0045 | 0.027 | 0.0275 | 0.0274 | 0.028 | 0.028 | 0.028
m1 = 0.005 | 0.03 | 0.0305 | 0.0305 | 0.031 | 0.0305 | 0.031
m1 = 0.0055 | 0.033 | 0.0335 | 0.0335 | 0.0335 | 0.0335 | 0.034
m1 = 0.006 | 0.0355 | 0.036 | 0.0358 | 0.0365 | 0.0365 | 0.037
m1 = 0.0065 | 0.038 | 0.0385 | 0.038 | 0.0385 | 0.0385 | 0.04
m1 = 0.007 | 0.0399 | 0.0405 | 0.0405 | 0.041 | 0.0405 | 0.0425
m1 = 0.0075 | 0.042 | 0.0425 | 0.043 | 0.0435 | 0.0425 | 0.045
m1 = 0.008 | 0.044 | 0.0445 | 0.0455 | 0.0455 | 0.045 | 0.0475
m1 = 0.0085 | 0.046 | 0.0465 | 0.048 | 0.048 | 0.0475 | 0.05
m1 = 0.009 | 0.048 | 0.0485 | 0.0499 | 0.05 | 0.0499 | 0.0525
m1 = 0.0095 | 0.05 | 0.051 | 0.052 | 0.0525 | 0.0519 | 0.055
m1 = 0.01 | 0.0518 | 0.053 | 0.054 | 0.055 | 0.0539 | 0.0575
